The term IC50 denotes the concentration needed to halve the response being measured.

Counter-ions that a name gives are not always drawn.

Test [1] has as its target T1, Human fibrinogen receptor (αIIb β3) (Homo sapiens, UniProt P05106+P08514).
T1 construct: Human fibrinogen receptor (αIIb β3) was purified from outdated platelets; from tissue; host or cells: human outdated platelets
The experiment in a line: Purified IIb/IIIa receptor assay (solid phase receptor assay). The following applies: inhibition of binding of biotinylated human vitronectin (1 nM) to purified receptor; Table I. The gist of the method:
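Platelet-purified αIIbβ3 (100 ng/well) coated overnight at 4 °C, then competed 2 h at room temperature against 1 nM biotinylated human vitronectin in TBS with 1.0 mM Ca/Mg/Mn, pH 7.4, 1% BSA; top compound 1.0×10^-4 M. Bound ligand detected by HRP anti-biotin, A450, normalized to maximum binding, four-parameter fit.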

In test [2] the target is T2, Human vitronectin receptor (αv β3) (Homo sapiens, UniProt P05106+P06756).
T2 construct: Human vitronectin receptor (αv β3) was purified from human placenta; from tissue; host or cells: human placenta
T2 sequence (P06756 31-889 limits assumed): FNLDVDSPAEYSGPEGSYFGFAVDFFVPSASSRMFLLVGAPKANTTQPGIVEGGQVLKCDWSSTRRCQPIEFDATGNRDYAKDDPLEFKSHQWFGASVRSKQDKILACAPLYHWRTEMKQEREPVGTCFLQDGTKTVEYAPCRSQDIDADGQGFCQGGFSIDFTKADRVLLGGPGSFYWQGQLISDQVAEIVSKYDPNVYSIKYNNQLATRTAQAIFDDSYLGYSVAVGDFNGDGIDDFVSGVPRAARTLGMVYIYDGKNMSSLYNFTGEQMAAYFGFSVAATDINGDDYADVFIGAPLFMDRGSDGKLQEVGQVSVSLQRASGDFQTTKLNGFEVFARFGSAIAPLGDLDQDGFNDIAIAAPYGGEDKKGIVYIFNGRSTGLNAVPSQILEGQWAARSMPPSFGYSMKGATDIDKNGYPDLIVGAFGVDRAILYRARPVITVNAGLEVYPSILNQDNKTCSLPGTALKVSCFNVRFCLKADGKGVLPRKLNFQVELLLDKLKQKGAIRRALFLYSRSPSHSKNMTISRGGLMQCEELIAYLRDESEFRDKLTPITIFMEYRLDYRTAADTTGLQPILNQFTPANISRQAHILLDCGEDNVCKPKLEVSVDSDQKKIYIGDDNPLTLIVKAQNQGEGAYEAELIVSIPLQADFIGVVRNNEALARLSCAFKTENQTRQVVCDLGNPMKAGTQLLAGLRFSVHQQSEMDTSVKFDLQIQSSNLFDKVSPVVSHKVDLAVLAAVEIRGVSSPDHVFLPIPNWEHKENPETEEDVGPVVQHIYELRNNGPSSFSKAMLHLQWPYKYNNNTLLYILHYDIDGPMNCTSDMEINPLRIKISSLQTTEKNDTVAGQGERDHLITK
T2 sequence (P06756 891-1048 limits assumed): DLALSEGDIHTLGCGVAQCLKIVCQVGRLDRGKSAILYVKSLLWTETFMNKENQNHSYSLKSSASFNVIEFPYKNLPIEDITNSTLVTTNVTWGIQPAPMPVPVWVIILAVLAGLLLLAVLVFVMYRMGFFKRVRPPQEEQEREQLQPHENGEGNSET
T2 sequence (P05106 27-788): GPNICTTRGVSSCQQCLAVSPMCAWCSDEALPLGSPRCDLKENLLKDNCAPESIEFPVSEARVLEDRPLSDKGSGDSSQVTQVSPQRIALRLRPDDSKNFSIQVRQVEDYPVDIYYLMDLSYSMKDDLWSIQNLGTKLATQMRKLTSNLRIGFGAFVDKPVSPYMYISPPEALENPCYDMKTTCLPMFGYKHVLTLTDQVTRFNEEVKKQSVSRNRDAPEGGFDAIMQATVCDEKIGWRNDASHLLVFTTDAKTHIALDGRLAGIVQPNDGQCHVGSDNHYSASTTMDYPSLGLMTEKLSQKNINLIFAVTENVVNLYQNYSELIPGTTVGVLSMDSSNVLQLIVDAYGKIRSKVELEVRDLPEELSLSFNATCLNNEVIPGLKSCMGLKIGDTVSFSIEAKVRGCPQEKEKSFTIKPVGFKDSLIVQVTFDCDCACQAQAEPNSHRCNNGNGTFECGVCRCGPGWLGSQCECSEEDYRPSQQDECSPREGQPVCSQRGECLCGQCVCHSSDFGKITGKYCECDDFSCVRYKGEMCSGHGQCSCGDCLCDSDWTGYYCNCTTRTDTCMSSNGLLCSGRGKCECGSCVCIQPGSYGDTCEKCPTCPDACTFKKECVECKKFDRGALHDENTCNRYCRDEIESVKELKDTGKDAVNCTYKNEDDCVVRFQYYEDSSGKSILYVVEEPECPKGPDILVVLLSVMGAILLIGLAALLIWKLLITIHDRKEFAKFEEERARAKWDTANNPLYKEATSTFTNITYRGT
The test is described as follows: Vitronectin adhesion assay (solid phase receptor assay, αvβ3). In kind it is binding. The following applies: inhibition of binding of biotinylated human vitronectin (1 nM) to purified receptor; Table I; read-out: AvB3 IC50. The method, boiled down:
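Placental αvβ3 (100 ng/well) coated in TBS with 1 mM Ca, Mg, Mn, pH 7.4, then compound competed with 1 nM biotinylated vitronectin for 2 h at room temperature (top compound concentration 1.0×10^-4 M). Bound ligand detected with HRP anti-biotin/OPD at 450 nm; values normalized to maximum binding, four-parameter curve fit.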

T1 sequence (P08514 32-887 limits assumed): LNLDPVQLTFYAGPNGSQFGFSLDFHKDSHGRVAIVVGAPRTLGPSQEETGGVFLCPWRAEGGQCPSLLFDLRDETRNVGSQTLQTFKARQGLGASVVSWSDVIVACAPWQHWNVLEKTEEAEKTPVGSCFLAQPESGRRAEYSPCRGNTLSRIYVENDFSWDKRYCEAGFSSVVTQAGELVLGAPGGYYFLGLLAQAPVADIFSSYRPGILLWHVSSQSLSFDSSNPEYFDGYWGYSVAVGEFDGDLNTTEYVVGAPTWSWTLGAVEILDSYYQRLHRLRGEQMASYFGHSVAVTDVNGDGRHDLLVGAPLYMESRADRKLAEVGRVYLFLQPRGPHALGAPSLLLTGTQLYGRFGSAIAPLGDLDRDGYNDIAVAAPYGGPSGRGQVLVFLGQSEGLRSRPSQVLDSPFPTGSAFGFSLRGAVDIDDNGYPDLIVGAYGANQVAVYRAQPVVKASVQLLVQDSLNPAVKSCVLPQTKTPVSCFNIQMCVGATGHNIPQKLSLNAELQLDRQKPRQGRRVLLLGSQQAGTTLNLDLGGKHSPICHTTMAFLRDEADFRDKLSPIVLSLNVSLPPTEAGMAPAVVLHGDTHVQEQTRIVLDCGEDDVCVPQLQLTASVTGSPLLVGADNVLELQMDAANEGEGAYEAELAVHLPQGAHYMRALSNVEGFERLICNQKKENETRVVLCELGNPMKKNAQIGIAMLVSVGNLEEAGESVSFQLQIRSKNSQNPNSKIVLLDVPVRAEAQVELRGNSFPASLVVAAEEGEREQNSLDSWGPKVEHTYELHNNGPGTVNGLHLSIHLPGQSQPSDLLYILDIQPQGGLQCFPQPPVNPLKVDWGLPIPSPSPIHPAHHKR
T1 sequence (P08514 891-1039 limits assumed): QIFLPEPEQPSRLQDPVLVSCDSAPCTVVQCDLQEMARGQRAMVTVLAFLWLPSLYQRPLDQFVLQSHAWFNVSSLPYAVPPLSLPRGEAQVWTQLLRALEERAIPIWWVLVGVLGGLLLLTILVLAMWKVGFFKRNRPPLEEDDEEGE
T1 sequence (P05106 27-788): as the sequence (P05106 27-788) above

`N=C(N)Nc1cccc(/C=C/C(=O)c2cccc(/C=C/C(=O)O)c2)c1` [Example 88, 3-[3-[3-[3-[(aminoiminomethyl)amino]phenyl]-1-oxopropenyl]phenyl]propenoic acid, trifluoroacetate salt]: the values for the IC50 in test [1] and in test [2] were 2610 nM and 37.3 nM, respectively.
In the same order, the values of `N=C(N)Nc1cccc(C(=O)/C=C/c2cccc(/C=C/C(=O)O)c2)c1` [Example 89, 3-[3-[3-[3-[(aminoiminomethyl)amino]phenyl]-3-oxopropenyl]phenyl]propenoic acid, trifluoroacetate salt hydrate] are 1260 nM and 196 nM.
In the same order, the values of `O=C(O)/C=C/c1cccc(C(=O)/C=C/c2cccc(NC3=NCCCN3)c2)c1` [Example 90, 3-[3-[1-oxo-3-[3-[(1,4,5,6-tetrahydropyrimidin-2-yl)amino]phenyl]-2-propenyl]phenyl]propenoic acid, trifluoroacetate salt] are 2320 nM and 6.98 nM.
For `N=C(N)Nc1cccc(C(=O)CCc2cccc(/C=C/C(=O)O)c2)c1` [Example 91, 3-[3-[3-[3-[(aminoiminomethyl)amino]phenyl]-3-oxopropyl]phenyl]propenoic acid, trifluoroacetate salt hydrate], the IC50 in test [1] was found to be 8670 nM; in test [2], 1270 nM.
In the same order, the values of `N=C(N)Nc1cccc(CCC(=O)c2cccc(/C=C/C(=O)O)c2)c1` [Example 92, 3-[3-[3-[3-[(aminoiminomethyl)amino]phenyl]-1-oxopropyl]phenyl]propenoic acid, trifluoroacetate salt] are 4010 nM and 48.9 nM.
Regarding `O=C(O)/C=C/c1cccc(C(=O)CCc2cccc(NC3=NCCCN3)c2)c1` [Example 93, 3-[3-[1-oxo-3-[3-[(1,4,5,6-tetrahydropyrimidin-2-yl)amino]phenyl]propyl]phenyl]propenoic acid, trifluoroacetate salt], the IC50 was found to be 5990 nM in test [1] and 6.1 nM in test [2].
Turning to `O=C(O)/C=C/c1cccc(/C=C/C(=O)c2cccc(NC3=NCCCN3)c2)c1` [Example 94, 3-[3-[3-oxo-3-[3-[(1,4,5,6-tetrahydropyrimidin-2-yl)amino]phenyl]-1-propenyl]phenyl]propenoic acid, trifluoroacetate salt], the IC50 in test [1] is 2710 nM; in test [2] it was 11.3 nM.
In the case of `O=C(O)/C=C/c1cccc(CCC(=O)c2cccc(NC3=NCCCN3)c2)c1` [Example 95, 3-[3-[3-oxo-3-[3-[(1,4,5,6-tetrahydropyrimidin-2-yl)amino]phenyl]propyl]phenyl]propenoic acid, trifluoroacetate salt hydrate], the IC50 in test [1] stood at 11800 nM; in test [2], 58.5 nM.
Consider `O=C(O)/C=C/c1ccc(/C=C/c2cccc(NC3=NCCCN3)c2)cc1` [Example 98, 3-[4-[2-[3-[(1,4,5,6-tetrahydropyrimidin-2-yl)amino]phenyl]ethenyl]phenyl]propenoic acid, trifluoroacetate salt], for which the IC50 in test [1] came to 222 nM; in test [2], 5.08 nM.
In the same order, the values of `O=C(O)/C=C/c1ccc(/C=C/c2cccc(NC3=NCCN3)c2)cc1` [Example 99, 3-[4-[2-[3-[(4,5-dihydro-1H-imidazol-2-yl)amino]phenyl]ethenyl]phenyl]propenoic acid, trifluoroacetate salt] are 722 nM and 26.5 nM.
In the same order, the values of `O=C(O)/C=C/c1ccc(/C=C/c2cccc(NC3=NCCCS3)c2)cc1` [Example 100, 3-[4-[2-[3-[(5,6-dihydro-4H-thiazin-2-yl)amino]phenyl]ethenyl]phenyl]propenoic acid, trifluoroacetate salt] are 664 nM and 30.6 nM.
In the same order, the values of `O=C(O)/C=C/c1ccc(OCc2cccc(NC3=NCCCN3)c2)cc1` [Example 101, 3-[4-[[3-[(1,4,5,6-tetrahydropyrimidin-2-yl)amino]phenyl]methoxy]phenyl]propenoic acid, trifluoroacetate salt] are 118 nM and 42.6 nM.
`N=C(N)Nc1cccc(-c2nc(-c3cccc(/C=C/C(=O)O)c3)co2)c1` [Example 102, 3-[3-[2-[3-[(aminoiminomethyl)amino]phenyl]oxazol-4-yl]phenyl]propenoic acid, trifluoroacetate salt]: the IC50 was 4480 nM in test [1] and 1940 nM in test [2].
For the molecule `N=C(N)Nc1cccc(-c2coc(-c3ccc(C=CC(=O)O)cc3)n2)c1` [Example 103, 3-[4-[4-[3-[(aminoiminomethyl)amino]phenyl]oxazol-2-yl]phenyl]propenoic acid], the IC50 in test [1] turned out to be 0.9 nM; in test [2], 32100 nM.
In the case of `N=C(N)Nc1cccc(-c2ncc(-c3ccc(/C=C/C(=O)O)cc3)[nH]2)c1` [Example 104, 3-[4-[2-[3-[(aminoiminomethyl)amino]phenyl]-1H-imidazol-5-yl]phenyl]propenoic acid, trifluoroacetate salt], the values for the IC50 in test [1] and in test [2] were 24.5 nM and 17300 nM, respectively.

The values are drawn from patent publication US5852210A, “Cinnamic acid derivatives” (G. D. Searle & Co., priority 1997, dated 1998).
